In patent US12589088B2, “Compositions and methods for treating cancer with andrographolide and melatonin combination therapy” (University of Maryland, Baltimore, priority 2020, dated 2026):
Where two headings read alike, the source gives them in different places. One block for each compound: values may come before it.

Assays:
[1] = cited from earlier work
[2] = system: HCT-15; details: HCT-15, previous studies (Lim et al. 2007); read-out: IC50 dose of 5-FU; cited from earlier work
[3] = system: FoxM1 and phospho-VEGF receptor1 protein; test: Immunoblotting of angiogenic markers in HT-29 and HCT-15 cell lysates; format: cell-based, human; details: vs untreated and single compound groups
Method: (§1) FIG. 6. AGP and MLT synergistically downregulates angiogenic signaling molecules in colon cancer cells. HT-29 (left) and HCT-15 (right) cells were analyzed for A. VEGF165, B. VEGF189, C. VEGF receptor1, D. FoxM1, E. PTTG1 mRNA expression in the presence and absence of AGP, MLT and 5-FU. F. HT-29 and HCT-15 cell lysates were subjected for protein expression as indicated. (G-H). Quantification of FoxM1 was normalized with GAPDH and (I-J). p-VEGF receptor1 was normalized with total VEGF receptor 1. Statistical significance was determined using one-way ANOVA followed Bonferroni test (*P<0.05, **P<0.01, ***P<0.001).
(§2) Immunoblotting was performed as previously described (Banerjee, Basu, et al. 2016). The primary antibodies used were against ATF6 (#MA5-16172; Thermo Fisher Scientific) phospho-PERK (Thr 981) (#sc-32577; Santa Cruz biotechnology), IRE-1 (#3294S; Cell Signaling), phospho-VEGFReceptor1/Flt-1 (Y1213) (#AF4170; R&D systems,), total VEGFReceptor1 (R&D systems, #AF321), FoxM1 (R&D systems, #AF3975), and GAPDH (#G8795; Sigma Aldrich). Blots were incubated with HRP-conjugated secondary antibodies followed by enhanced chemiluminescence (ECL) detection. Images were captured using a Syngene G Box digital imager (Frederick, Md.) and results were quantified with densitometry as previously described (Blanchard et al. 2018).

[4] = system: HT-29; details: HT-29, previous studies (Lim et al. 2007); read-out: IC50 dose of 5-FU; cited from earlier work
[5] = system: IRE-1, ATF6, phospho-PERK protein; test: Immunoblotting of ER stress markers in HT-29 and HCT-15 cell lysates; format: cell-based, human; details: 5-FU treatment group; except IRE-1 protein level in HT-29
Method: (§3) FIG. 5. AGP and MLT synergistically induce ER stress-related molecules. HT-29 and HCT-15 cells were treated with AGP, MLT, AGP+MLT, and 5-FU for 48 h as indicated in the methodology section. Transcriptional level of expression of ER stress associated genes was determined by qRT-PCR for A. IRE-1, B. ATF6, and C. CHOP. Bar graphs show quantitative results normalized to GAPDH mRNA levels. Results are from three independent experiments. D. Treated and untreated cells were lysed, and protein expression was determined by immunoblotting for IRE-1, ATF6, phospho-PERK, and GAPDH.
as §2

[6] = system: VEGF165, VEGF189, VEGF receptor1, VEGF Receptor2, FoxM1, PTTG1 mRNA; test: qRT-PCR of angiogenic signaling molecules in HT-29 and HCT-15 cells; format: cell-based, human
Method: as §1
(§4) Gene expression was evaluated as previously described (Banerjee et al., Oncotarget, (2016), 7(27):41432-41444). Primer sequences are listed in Supplementary Table 1. Relative gene expression changes were calculated using the 2^−ΔΔCT method, and expression normalization was accomplished using the housekeeping gene, GAPDH.

[7] = system: IRE-1, ATF6, CHOP mRNA; test: qRT-PCR of ER stress associated genes in HT-29 and HCT-15 cells; format: cell-based, human; details: 5-FU at IC50 dose; for CHOP mRNA expression: AGP 9.3 μM, MLT 0.18 mM alone or combined, 48 h, both cell lines
Method: as §3, §4

[8] = system: Cyclin B1, Prx, Trx; details: T84 and Colo 205 cell lysates, earlier publication; cited from earlier work
[9] = system: HCT-15 cells; test: MTT cell viability assay with CompuSyn / Chou-Talalay combination index analysis; format: cell-based, human; details: for IC50: Homo sapiens, HCT-15, 48 h, median-effect plot, combination = total dose at 1:20, read-out: Dm values for HCT-15
Method: (§5) Cell cytotoxicity in the presence or absence of AGP and MLT was assessed using the MTT (Sigma Aldrich) assay as previously described (Banerjee et al., Helicobacter, (2016), 21(5):395-404). Cells (1×10^4) were plated in phenol-free complete RPMI media and incubated at 37° C. under 5% CO2 for 24 h. Cells were then simultaneously treated in quadruplicate wells with AGP (0-150 μM), MLT (0-3000 μM) or vehicle controls (0.1% DMSO). The media was replaced with MTT solution for each plate at its respective timepoint (either 24, 48, 72 h) followed by the addition of DMSO to dissolve the formazan crystals. Absorbance at 570 nm was determined using a microplate reader (Model 550, Bio-Rad, USA). The percent cell viability relative to the vehicle control was calculated using the following equation:
(§6) [formula] The IC50 value and slope (m) of the concentration-response curves were calculated using the CompuSyn software developed by Chou and Martin (Tun et al., Mar Drugs, (2019), 17(9): 10.3390/md17090536). Colospheroid Formation Assay
(§7) To determine an upper bound on both the individual doses drugs, we measured maximum cell death (near 0% cell viability). AGP achieved this level at 150 μM and MLT at 3 mM for 48 h (Banerjee et al., Helicobacter, (2016), 21(5):395-404, Reiter et al., Int J Mol Sci, (2017), 18(4), doi: 10.3390/ijms18040843). […] Serial dilution was conducted up to 6 times to anchor the observed cell deaths along the dose range.
(§8) To understand the Combination Index (CI), we first defined the fraction affected (Fa) and its counterpart, fraction unaffected (Fu). In our case, the percentage of viable cells determines the […], and 100—percentage of viable cells determines the Fu. The dose effect curve provides an overview of Fa vs. Dose (FIG. 2A and FIG. 2B). As expected, the individual AGP and MLT dose effect curves cradle the combinational dose effect curve below and above, respectively. This means that the total combinational dose to achieve the same Fa is greater than AGP's dose and less than MLT's dose. However, due to the 1:20 combinational ratio, we require less AGP and MLT absolutely.
(§9) [formula] The ratio between Fa and Fu aids in understanding when a given dose achieves the IC50 value. At 50% cell viability,
(§10) [formula] To linearly scale the datapoints, we also took the log of Dose. In this manner, the x intercept of the Median-Effect plot—also known as Dm—precisely determines the dose required to achieve the IC50 value. Immunoblotting

[10] = system: HT-29 cells; test: as above; format: cell-based, human; details: for IC50: Homo sapiens, HT-29, 48 h, median-effect plot, combination = total dose at 1:20, read-out: Dm values for HT-29
Method: as §5, §6, §7, §8, §9, §10

[11] = system: T84 and Colo 205; details: cited from earlier work
[12] = target: Ki-67 in patient derived organoids (PDOD); test: Ki-67 immunofluorescence in patient derived organoids; format: cell-based, human; details: AGP 15 μM, MLT 0.5 mM or both, 48 h; vs untreated
Method: Organoid cells were generated from stage 3 metastatic cancer tissue and cultured as previously described (Blanchard et al., Cell Physiol Biochem, (2018), 48(3):1259-1273; Banerjee et al., Gastroenterology and Hepatology International Journal, (2017), 2(2):1-2; Blanchard et al., Cancers (Basel), (2019), 11(2)). The cultures were passaged when the aggregates reached a diameter of approximately 800 μm. Organoids were treated with 15 μM AGP, 0.5 mM MLT, or both for 48 h. Treated and untreated organoids were subjected to morphological analysis and immunofluorescence for Ki67 expression.
Patient derived organoids were grown in 1:1 mixture of Matrigel and advanced DMEM:F12 (Life Technologies) supplemented with 1× penicillin/streptomycin, lx glutamine, 1×N2, 1×B27, 1 mM N-acetyl-L-cysteine, 20 ng/ml fibroblast growth factor and 50 ng/ml epidermal growth factor at 37° C. on a 4-chambered glass slide. […]
Fluorescence microscopy and colony counting were performed using an inverted fluorescence microscope (Olympus IX-71, Pennsylvania, USA). […] Fluorescence intensity was quantified using ImageJ software version 1.39 (NIH). RGB composite images from control and treated groups were created using Axion Vision rel, 4.6 and analyzed. […]

[13] = system: HT-29 and HCT-15 cells; test: MTT cell viability assay, one value given for both cell lines; format: cell-based, human; details: for IC50: Homo sapiens
Method: as §5, §6, §7, §8, §9, §10

[14] = system: CRC; details: previous studies; read-out: IC50 value of MLT for CRC; cited from earlier work

Structure (SMILES): O=c1[nH]cc(F)c(=O)[nH]1 [5-FU, 5-Fluorouracil]
overall response rate to 5-FU in adjuvant treatment ([1]; adjuvant treatment): less than 15%
overall response of 5-FU in advanced CRC ([1]; advanced CRC): about 10%
IC50 [2]: ~5 µM
FoxM1 protein [3]: No further reduction
phospho-VEGF receptor1 protein [3]: No further reduction
IC50 [4]: 13 µM
ER stress marker protein expression [5]: No significant changes
FoxM1 mRNA level [6]: no more significant reduction
PTTG1 mRNA level [6]: no more significant reduction
mVEGF165 level ([6]; both cell lines, vs untreated): increased
mVEGF189 level ([6]; both cell lines, vs untreated): increased
ATF6 mRNA expression ([7]; HCT-15): induced significant
IRE-1 mRNA expression ([7]; HT-29 and HCT-15): induced significant
CHOP mRNA expression [7]: attenuated

IC50 [9]: 26.5 µM
IC50 [10]: 25.6 µM
Ki-67 expression [12]: greatly reduced
IC50 ([13]; 24 h (stated consistent with 48 h), read-out: IC50 value of AGP): 30 µM
IC50 ([13]; AGP single dose, 48 h, read-out: IC50 values): 30 µM
Structure (SMILES): C=C1CC[C@@H]2[C@](C)(CO)[C@H](O)CC[C@@]2(C)[C@@H]1C/C=C1/C(=O)OC[C@H]1O [AGP, andrographolide]
Cyclin B1 expression, AGP alone [8]: suppresses
potency of AGP relative to MLT ([9]; HCT-15, dose-effect curve): 26 fold
potency of AGP relative to MLT ([10]; HT-29, dose-effect curve): 40 fold
IC50 ([11]; 48 h, published results, read-out: IC50 value for AGP as a single therapy): 45 µM
IC50 ([11]; T84 and Colo 205, previous study, read-out: IC50 value of AGP): 45 µM
dose achieving maximum cell death (near 0% cell viability) ([13]; 48 h): 150 µM
potency of AGP relative to MLT (basis of 1:20 ratio) ([13]; from maximum cell death doses): 20 times
CHOP mRNA expression [7]: Significant CHOP mRNA expression

IC50 [9]: 683 µM
IC50 [10]: 1000 µM
Ki-67 expression [12]: greatly reduced
IC50 ([13]; MLT single dose, 48 h, read-out: IC50 values): 1000 µM
Structure (SMILES): COc1ccc2[nH]cc(CCNC(C)=O)c2c1 [MLT, melatonin]
cell number at 24 h ([13]; 24 h): transient increase in the cell number
dose achieving maximum cell death (near 0% cell viability) ([13]; 48 h): 3000 µM
IC50 [14]: 1000 to 2500 µM
